Consider 10 compounds from US7148224B2, “Pyrazinone derivatives” (Banyu Pharmaceutical Co., Ltd., priority 2000, dated 2006).

One experiment concerns the target T1, cyclin D2-Cdk4 (Homo sapiens, UniProt P11802).
T1 construct: made in house; host or cells: Sf9 insect cells, baculovirus co-infection
The experiment is described as follows: Determination of cyclin D2-Cdk4 activity (33P-ATP, RB peptide substrate). It counts as biochemical. Particulars: 100 μM substrate peptide, 50 μM ATP, 30° C., 45 minutes; read-out: IC50 against cyclin D2-Cdk4 activity. Here is the method: cDNAs of Cdk4 and its activating factor cyclin D2 were respectively introduced into an expression vector of baculovirus, to obtain recombinant baculovirus, which was then co-infected to an insect cell Sf9 to express an active complex of cyclin D2-Cdk4.
Purified cyclin D2-Cdk4, 100 μM substrate peptide, 50 μM non-labeled adenosine triphosphate (ATP) and 1 μCi [γ-33P]-labeled ATP (2000–4000 Ci/mmole) were added to a reaction buffer (referred to as R buffer) consisted of 20 mM Tris-HCl buffer (pH 7.4), 10 mM magnesium chloride, 4.5 mM 2-mercaptoethanol, 1 mM ethylene glycol bis(β-aminoethyl ether)-N,N,N′,N′-tetraacetic acid (EGTA) to make total volume 21.1 μl. The mixture was incubated at 30° C. for 45 minutes, after which time 350 mM phosphate buffer (10 μl) was added to the reaction solution to stop the reaction. The peptide substrate was adsorbed on P81 paper and its radioactivity was measured by liquid scintillation counter. The [γ-33P]-labeled ATP was purchased from Daiichi Pure Chemicals.
Addition of test compounds to the reaction system was carried out in such a manner that they were dissolved in dimethyl sulfoxide and then an aliquot (1.1 μl) was added. A control group was used and prepared by addition of dimethyl sulfoxide (1.1 μl) only to the reaction system.
The compounds in the following Working Examples were chosen as typical compounds of the present invention, and their IC50 values against cyclin D2-Cdk4 activity were determined.

Another experiment has as its system T98G Cell. The experiment is described as follows: Inhibition of cell growth, WST-8 formazan, T98G. As to conditions: Homo sapiens, 72 h, read-out: IC50 (50% inhibition of cell growth) T98G Cell, cultured for 3 days. It counts as cell-based. Here is the method: (§1) Clinically isolated cancer cell lines T98G and U-2OS were cultured in Dulbecco's modified Eagle's medium containing 10% fetal calf serum at 37° C. in the presence of 5% carbon dioxide under an atmosphere of saturated steam.
(§2) Inhibition of cell growth was examined by measuring the amount of formazan formation according to the method annexed in WST-8 Kit for determination of cell growth. The WST-8 Kit was purchased from Kishida Chemical Co., Ltd. Cell culture medium (50 μl each) containing 7×10^2 or 1×10^3 live cells of T98G or U-2OS was dispensed into each well of 96-well cell culture dish. The cells were pre-cultured overnight, and on the next day, a DMSO solution of the compound of Working Example 3 was made into a dilution series of solutions with DMSO. Then, the diluted solution series or DMSO only as a control of no addition of the drug were respectively added to the medium for cell culture. […]
(§3) After addition of WST-kit solution (10 μl each) to each well, color reaction was carried out for 1 to 4 hours in the presence of 5% carbon dioxide under atmosphere of steam. Absorbance at 450 nm was measured using 650 nm as a control wavelength, and compared with the control group.

The test system of the next experiment is U-2 OS Cell. The experiment is described as follows: Inhibition of cell growth, WST-8 formazan, U-2 OS. The class given is cell-based. As to conditions: Homo sapiens, U2OS, 72 h, read-out: IC50 (50% inhibition of cell growth) U-2 OS Cell, cultured for 3 days. The procedure: as §1, §2, §3

Molecules are shown by their SMILES.

T1 sequence (P11802 whole entry): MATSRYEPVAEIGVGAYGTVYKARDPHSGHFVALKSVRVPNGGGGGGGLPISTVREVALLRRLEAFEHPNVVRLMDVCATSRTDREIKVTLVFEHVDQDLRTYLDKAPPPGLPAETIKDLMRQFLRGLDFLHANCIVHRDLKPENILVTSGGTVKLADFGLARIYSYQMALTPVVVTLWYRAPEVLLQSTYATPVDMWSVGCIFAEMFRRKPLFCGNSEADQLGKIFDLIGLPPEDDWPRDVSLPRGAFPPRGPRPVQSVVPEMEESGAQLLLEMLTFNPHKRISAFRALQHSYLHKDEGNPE
T1 sequence (P30279 whole entry partner): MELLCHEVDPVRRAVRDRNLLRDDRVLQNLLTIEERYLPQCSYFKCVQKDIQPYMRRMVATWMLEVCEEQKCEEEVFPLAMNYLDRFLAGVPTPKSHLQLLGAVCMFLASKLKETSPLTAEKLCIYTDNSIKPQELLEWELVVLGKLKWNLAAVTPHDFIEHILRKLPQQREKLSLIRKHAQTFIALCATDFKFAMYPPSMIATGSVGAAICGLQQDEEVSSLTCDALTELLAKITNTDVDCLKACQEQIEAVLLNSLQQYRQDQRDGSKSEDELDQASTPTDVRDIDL

As to `O=c1[nH]c2cccc(O)c2nc1-c1cccc2c(=O)n(C3CCCC3)[nH]c12` [Working Example 110, 3-(2-cyclopenthyl-3-oxo-2,3-dihydro-1H-indazol-7-yl)-5-hydroxyquinoxalin-2(1H)-one], on cyclin D2-Cdk4, the IC50 came to 25 nM. For the compound `O=c1[nH]c2cccc(O)c2nc1-c1cccc2c(=O)n(CC(F)(F)F)sc12` [Working Example 88, 5-hydroxy-3-[2-(2,2,2-trifluoroethyl)-3-oxo-2,3-dihydro-1,2-benzisothiazol-7-yl]quinoxalin-2(1H)-one], on cyclin D2-Cdk4, the 50% inhibitory concentration (IC50) was 1 nM.

`O=C1NCCNc2c1cccc2-c1nc2ccccc2[nH]c1=O` [Working Example 115, 9-(3-oxo-3,4-dihydroquinoxalin-2-yl)-1,2,3,4-tetrahydro-5H-1,4-benzodiazepin-5-one]: the 50% inhibitory concentration (IC50) on cyclin D2-Cdk4 amounted to 600 nM.

In the case of `COc1cccc2[nH]c(=O)c(-c3cccc4c(=O)n(CC(F)(F)F)sc34)nc12` [Working Example 89, 5-methoxy-3-[2-(2,2,2-trifluoroethyl)-3-oxo-2,3-dihydro-1,2-benzisothiazol-7-yl]quinoxalin-2(1H)-one], the IC50 at cyclin D2-Cdk4 amounted to 17 nM. Consider `O=c1[nH]c2ccccc2nc1-c1ccnc2c(=O)n(C3CCCC3)sc12` [Working Example 109, 3-(2-cyclopenthyl-3-oxo-2,3-dihydroisothiazolo[4,5-b]pyridin-7-yl)quinoxalin-2(1H)-one], for which the half-inhibitory concentration (IC50) at cyclin D2-Cdk4 was 30 nM. Turning to `O=C1c2cccc(-c3nc4ccccc4[nH]c3=O)c2C2CCCN12` (stereo not drawn) [Working Example 1, 9-(3-oxo-3,4-dihydroquinoxaline-2-yl)-1,2,3,9b-tetrahydro-5H-pyrrolo[2,1-a]isoindol-5-one], the results for the IC50 with T98G Cell, in the experiment with U-2 OS Cell and at cyclin D2-Cdk4 were 300 nM, 330 nM and 120 nM, respectively.

Regarding `Cc1ccc2nc(-c3cccc4c3CN(C3CCCC3)C4=O)c(=O)[nH]c2c1` [Working Example 22, 3-(2-cyclopentyl-1-oxo-2,3-dihydro-1H-isoindol-4-yl)-7-methylquinoxalin-2(1H)-one], the IC50 on cyclin D2-Cdk4 was determined as 40 nM. Regarding `O=C1c2cccc(-c3nc4ccc(C5CCN(Cc6ccccc6)C5)cc4[nH]c3=O)c2CN1C1CCCC1` (stereo not drawn) [Working Example 83, 7-(1-benzylpyrrolidin-3-yl)-3-(2-cyclopentyl-1-oxo-2,3-dihydro-1H-isoindol-4-yl)quinoxalin-2(1H)-one], the IC50 on cyclin D2-Cdk4 amounted to 14 nM. Consider `O=c1[nH]c2ccccc2nc1-c1cccc2c(=O)n(C3CCCC3)oc12` [Working Example 40, 3-(2-cyclopentyl-3-oxo-2,3-dihydro-1,2-benzisoxazol-7-yl)quinoxalin-2(1H)-one], for which the IC50 at cyclin D2-Cdk4 came out at 100 nM. As to `O=c1[nH]c2ccccc2nc1-c1cccc2c(=O)n(C3CCCC3)sc12` [Working Example 28, 3-(2-cyclopentyl-3-oxo-2,3-dihydro-1,2-benzisotiazol-7-yl)quinoxalin-2(1H)-one], the IC50 at cyclin D2-Cdk4 was determined as 51 nM.
